Legend:
Assay type in all cases: cell-based, human
MDA-MB-231/HER2 cells = assay: In vitro association study (flow cytometry, Cy5), MDA-MB-231/HER2; conditions: MDA-MB-231/HER2, 0.5 h
Method: (§1) MDA-MB-231, MDA-MB-231/HER2 (HER2 knock in) (as described above), or SKOV-3 cells were seeded in a 24-well plate (1×10^5 cells per well) in 500 μL of appropriate growth media with the addition of 10% (v/v) fetal bovine serum (FBS) and incubated with compound 36 or 41 at 3.33 nM, […] atmosphere. After incubation, non-binding/non-associating particles were removed from adherent cells by gently washing with DPBS three times (300 μL/well). Cells were removed from plates by treatment with TrypLE™ Express Enzyme (1×), no phenol red (150 μL/well) for 5-10 min at room temperature. The plates were then placed on ice. Cellular binding and association of sample were then determined through flow cytometry by the acquisition of the signal from Cy5.

MDA-MB-231 cells [1] = assay: In vitro association study (flow cytometry, Cy5), MDA-MB-231; conditions: MDA-MB-231, 0.5 h
Method: as §1

SKOV-3 cells = assay: In vitro association study of G5 cabazitaxel dendrimers, SKOV-3; conditions: SKOV-3, 3.33 nM
Method: (§2) MDA-MB-231, MDA-MB-231/HER2 (HER2 knock in), or SKOV-3 cells were seeded in a 24-well plate (1×10^5 cells per well) in 500 μL of appropriate growth media with the addition of 10% (v/v) fetal bovine serum (FBS) and 1% (v/v) penicillin-streptomycin, and incubated with compound 70 (G5, PEG1000, CTX) or 78 (2D3, G5, PEG1000, CTX) at 3.33 nM, with incubation time varied from 1 to 24 h at 37° C. in a 5% CO2 humidified atmosphere. After incubation, non-binding/non-associating particles were removed from adherent cells by gently washing with DPBS three times (300 μL/well). Cells were removed from plates by treatment with TrypLE™ Express Enzyme (1×), no phenol red (150 μL/well) for 5-10 min at room temperature. The plates were then placed on ice. Cellular binding and association of sample were then determined through flow cytometry by the acquisition of the signal from Cy5.

[2] = test system: MDA-MB-231/HER2 (HER2 knock in) cells; assay: In vitro association study of G5 cabazitaxel dendrimers, MDA-MB-231/HER2; conditions: MDA-MB-231/HER2, 3.33 nM
Method: as §2

MDA-MB-231 cells [3] = assay: In vitro association study of G5 cabazitaxel dendrimers, MDA-MB-231; conditions: MDA-MB-231, 3.33 nM
Method: as §2

BHALys[Lys]2[Lys]4[((α-NH-COPEG24NH-COPEG4(PhTzMe/TCO-PEG3NH-COPEG24NH-Glu-DBCO))1(α-Lys(α-NHCy5)(ε-NHDFO))1(α-NH2)2)(ε-NH-COPEG1000)4] [Compound 82]
cellular association value (DFO/Cy5 BHA dendrimers; quantity not named, table stands under 'Percent of cellular association') (MDA-MB-231/HER2 cells): 14.83 ± 1.60
cellular association value (DFO/Cy5 BHA dendrimers; quantity not named, table stands under 'Percent of cellular association') (MDA-MB-231 cells [1]): 23.3 ± 3.98

BHALys[Lys]2[Lys]4[Lys]8[((α-NH-COPEG24NH-COPEG4(PhTzMe)/TCO-PEG3NH-COPEG24NH-Glu-DBCO)1(α-Lys(α-NHCy5)(ε-NHDFO))1(α-NH2)6)(ε-NH-COPEG1000)8] [Compound 83]
cellular association value (DFO/Cy5 BHA dendrimers; quantity not named, table stands under 'Percent of cellular association') (MDA-MB-231/HER2 cells): 43.23 ± 3.48
cellular association value (DFO/Cy5 BHA dendrimers; quantity not named, table stands under 'Percent of cellular association') (MDA-MB-231 cells [1]): 42.8 ± 2.78

BHALys[Lys]2[Lys]4[Lys]8[Lys]16[((α-NH-COPEG24NH-COPEG4(PhTzMe)/TCO-PEG3NH-COPEG24NH-Glu-DBCO)1(α-Lys(α-NHCy5)(ε-NHDFO))1(α-NH2)14)(ε-NH-COPEG1000)16] [Compound 84]
cellular association value (DFO/Cy5 BHA dendrimers; quantity not named, table stands under 'Percent of cellular association') (MDA-MB-231/HER2 cells): 16.7 ± 2.48
cellular association value (DFO/Cy5 BHA dendrimers; quantity not named, table stands under 'Percent of cellular association') (MDA-MB-231 cells [1]): 20.23 ± 0.63

BHALys[Lys]2[Lys]4[Lys]8[Lys]16[Lys]32[((α-NH-COPEG24NH-COPEG4(PhTzMe)/TCO-PEG3NH-COPEG24NH-Glu-DBCO)1(α-Lys(α-NHCy5)(ε-NHDFO))1(α-NH2)30)(ε-NH-COPEG1000)32] [Compound 85]
cellular association value (DFO/Cy5 BHA dendrimers; quantity not named, table stands under 'Percent of cellular association') (MDA-MB-231/HER2 cells): 25.6 ± 0.43
cellular association value (DFO/Cy5 BHA dendrimers; quantity not named, table stands under 'Percent of cellular association') (MDA-MB-231 cells [1]): 33.23 ± 2.2

BHA[Lys]32[((α-NH-COPEG24NH-COPEG4(PhMeTz))1-4(α-NHCy5)1(α-NH-COPEG9-Val-Ala-PAB-P-Trigger-NMeCO-CTX)22) (α-NH2)5-8(ε-NH-COPEG1100)32] [Compound 70]
Mean fluorescence intensity (MFI) (SKOV-3 cells; 1 h): 1.00 ± 0.29
Mean fluorescence intensity (MFI) (SKOV-3 cells; 3 h): 3.46 ± 0.69
Mean fluorescence intensity (MFI) (SKOV-3 cells; 6 h): 3.90 ± 0.10
Mean fluorescence intensity (MFI) (SKOV-3 cells; 24 h): 11.4±0.42
binding over 24 h (SKOV-3 cells; in words): minimal binding
Mean fluorescence intensity (MFI) ([2]; 1 h): 0.77 ± 0.06
Mean fluorescence intensity (MFI) ([2]; 3 h): 7.72 ± 4.17
Mean fluorescence intensity (MFI) ([2]; 6 h): 5.82 ± 0.07
Mean fluorescence intensity (MFI) ([2]; 24 h): 12.4±0.64
binding over 24 h ([2]; in words): minimal binding
Mean fluorescence intensity (MFI) (MDA-MB-231 cells [3]; 1 h): 1.00 ± 0.14
Mean fluorescence intensity (MFI) (MDA-MB-231 cells [3]; 3 h): 4.10 ± 0.71
Mean fluorescence intensity (MFI) (MDA-MB-231 cells [3]; 6 h): 5.65 ± 0.64
Mean fluorescence intensity (MFI) (MDA-MB-231 cells [3]; 24 h): 13.4 ± 0.07
binding over 24 h (MDA-MB-231 cells [3]; in words): minimal binding

Reference: patent US12653896B2, “Targeted dendrimer conjugates” (Starpharma Pty Ltd, priority 2019, dated 2026)
